ChEMBL document CHEMBL6109105, “Design, synthesis and antibacterial evaluation of oxazolidinone derivatives containing N-methylglycyl or quaternary ammonium salts” (Bioorg Med Chem, 2025)

Tested on: Enterococcus faecalis
Assay: Drug resistance, ratio of MIC for Enterococcus faecalis measured after 15 days to MIC for Enterococcus faecalis measured after 16 to 18 hrs
Assay type: functional

`CCn1cc(C(=O)O)c(=O)c2cc(F)c(N3CCNCC3)cc21` [NORFLOXACIN] gave a Ratio of 4.
